# Measured values as given in US6417197B1, “Acylated n-hydroxy methyl thalidomide prodrugs with immunomodulator action” (Gruenenthal GmbH, priority 1996, dated 2002).
# Assays:
# release of TNF-α = assay: LPS-induced release of TNF-α in human mononuclear cells of the peripheral blood (ELISA); format: cell-based; settings: LPS stimulation; for inhibition at 50 µg/mL: read-out: Inhibition of the release of TNF-α at a final concentration of 50 μg/ml; for IC50: Homo sapiens, linear regression line, read-out: IC50 (50% inhibition of the release of TNF-α)
# Experimental: The release of TNF-α was investigated in vitro on human mononuclear cells of the peripheral blood (T cells, B cells and monocytes), after stimulation with lipopolysaccharide (LPS). LPS is a constituent of the bacterial cell wall and stimulates monocytes and macrophages.
# Mononuclear cells were obtained from the heparin-treated blood of at least three volunteer donors. For this purpose, 20 ml blood in each case were separated by known methods via a Ficoll-Paque gradient, and the cells were harvested and washed three times with a cell culture medium. The cell culture medium which was used consisted of RPMI 1640 medium, supplemented with 2 mM glutamine (Life Technologies, Eggenstein), 10% foetal calf serum (Life Technologies), […] streptomycin (Sigma, Deisenhofen), 50 IU/ml penicillin (Sigma, Deisenhofen) and 100 μM β-mercaptoethanol (Merck, Darmstadt). The mononuclear cells were subsequently taken up in 15 ml cell culture medium and were divided into 1 ml batches in sterile 24-hole incubation plates (Sigma) 1 μl dimethylsulphoxide (DMSO, Merck) was added to the 1 ml batches which were used as the control batch. 1 μl of a solution of a compound according to the invention (in DMSO; final concentration in the test: 0.5; 5; 12.5 and 50 μg/ml) was added to the test batches. The batches were incubated for one hour in a CO2 incubation cabinet (5% CO2, 90% atmospheric humidity). 2.5 μg LPS (from E. coli 0127: B8, Sigma, Deisenhofen) was subsequently added as a stimulant to each batch with the exception of the control batches. Incubation of the cultures was continued for 20 hours. Following the incubation, the concentration of TNF-α in the cell culture supernatant liquors was determined by ELISA tests (Boehringer Mannheim).
# serum IL-2 = assay: SEB-induced increase in serum IL-2 in galactosamine-pretreated balb/c mice; format: in vivo; settings: 30 minutes before SEB; for Max. inhibition of the increase in serum IL-2 at a dose of 400 mg/kg: 400 mg/kg intraperitoneally, IL-2 2 hours after SEB, balb/c mice
# [1] = for solubility in water, corresponding thalidomide amount: thalidomide equivalent of the water solubility; for solubility: water, 25 °C
# [2] = Arch. Pharm. 321, 371 (1988); cited from earlier work
# [3] = 50 μg/ml, 20 hours, human mononuclear cells
Compound,inhibition at 50 µg/mL (release of TNF-α; [3]) [%],Max. inhibition of the increase in serum IL-2 at a dose of 400 mg/kg (serum IL-2) [%],"solubility in water, corresponding thalidomide amount [1] [mg thalidomide/ml]",solubility [1] [mg/mL],other results
"CC(C)(C)OC(=O)NCC(=O)OCN1C(=O)CCC(N2C(=O)c3ccccc3C2=O)C1=O (stereo not shown) [Compound 1, N-t-butyl oxycarbonyl-2-aminoacetic acid-[3-(1,3-dihydro-1,3-dioxo-2H-isoindol-2-yl)-2,6-dioxopiperidin-1-yl]methyl ester]",78,34,,,IC50 (release of TNF-α): 2.7 µg/mL
"Cl.NCC(=O)OCN1C(=O)CCC(N2C(=O)c3ccccc3C2=O)C1=O (stereo not shown) [Compound 2, 2-aminoacetic acid-[3-(1,3-dihydro-1,3-dioxo-2H-isoindol-2-yl)-2,6-dioxo-piperidin-1-yl]methyl ester hydrochloride]",54,68,33.6,497,"ED40 (dose giving 40% reduction in serum IL-2 concentrations) (serum IL-2; intraperitoneal, regression line): 230 mg/kg"
"CNC(C)C(=O)OCN1C(=O)CCC(N2C(=O)c3ccccc3C2=O)C1=O.Cl (stereo not shown) [Compound 4, 2-m ethylaminopropionic acid-[3-(1,3-dihydro-1,3-dioxo-2H-isoindol-2-yl)-2,6-dioxopiperidin-1-yl]methyl ester hydrochloride]",,26,> 190,> 300,melting point: 147 to 151 °C
"CC(C)C(N)C(=O)OCN1C(=O)CCC(N2C(=O)c3ccccc3C2=O)C1=O.Cl (stereo not shown) [Compound 6, 2-amino-3-methylbutyric acid-[3-(1,3-dihydro-1,3-dioxo-2H-isoindol-2-yl)-2,6-dioxopiperidin-1-yl]methyl ester hydrochloride]",97,52,> 190,> 300,IC50 (release of TNF-α): 2 µg/mL; melting point: 145 to 150 °C
"Cl.NCC(=O)NCC(=O)OCN1C(=O)CCC(N2C(=O)c3ccccc3C2=O)C1=O (stereo not shown) [Compound 8, 2-(aminomethylcarbonylamino) acetic acid-[3(1,3-dihydro-1,3-dioxo-2H-isoindol-2-yl)-2,6-dioxo-piperidin-1-yl]methyl ester hydrochloride]",,,> 190,> 300,
O=C1CCC(N2C(=O)c3ccccc3C2=O)C(=O)N1 (stereo not shown) [thalidomide],,,,,solubility of thalidomide in water [2]: 0.012 mg/mL
"[3-(1,3-dihydro-1,3-dioxo-2H-isoindol-2-yl)-2,6-dioxo-piperidin-1-yl]-methoxycarbonylpropionic acid [Compound 9]",,,,,Inhibition of the release of TNF-α at a final concentration of 50 μg/ml (release of TNF-α; [3]): 35%
